Data reported in US9982019B2, “Glycopeptide compound or pharmaceutical salt thereof and method for preparing same, and pharmaceutical compositions and applications thereof” (priority 2012, dated 2018).

Legend:
[1] = test system: Feces enterococci (VSE clinical isolates: MEFA 0039); test: In vitro antibacterial activity, agar two times dilution method, MIC; assay type: cell-based; settings: agar dilution; VSE clinical isolate MEFA 0039
Text: (§1) Testing results of in vitro antibacterial activity of some target compounds of the present invention are as follows:
(§2) Drugs: firstly being dissolved in DMSO, and then being diluted to an appropriate concentration with sterile water, and afterwards successively being diluted for twice.
(§3) Determination: referencing the standard of CSSI 2008 version, using a agar two times dilution method, determine the minimum inhibitory concentration (MIC values).
(§4) Feces enterococci (VSE clinical isolates: MEFA 0039); Streptococcus pneumoniae (PISP: ATCC 49619).
(§5) 3. Positive Control Drug is Vancomycin Hydrochloride.

[2] = test system: Streptococcus pneumoniae (PISP: ATCC 49619); test: as above; assay type: cell-based; settings: for MIC Values of Compounds, Streptococcus pneumoniae: agar dilution, PISP ATCC 49619
Text: as §1, §2, §3, §4, §5

Compound | MIC Values of Compounds, Enterococci [1] | MIC Values of Compounds, Streptococcus pneumoniae [2] | activity against streptococcus pneumoniae relative to vancomycin ([2]; compared with positive control vancomycin)
CNC(CC(C)C)C(=O)NC1C(=O)NC(CC(N)=O)C(=O)NC2C(=O)NC3C(=O)NC(C(=O)NC(C(=O)O)c4cc(O)c(CN5CCOCC5)c(O)c4-c4cc3ccc4O)C(OC3CC(C)(N)C(O)C(C)O3)c3ccc(c(Cl)c3)Oc3cc2cc(c3OC2OC(CO)C(O)C(O)C2OC2CC(C)(NCc3ccccc3Br)C(O)C(C)O2)Oc2ccc(cc2Cl)C1O (stereo not shown) [Compound I5] | 0.25 µg/mL | 0.125 µg/mL | 
CCCCNCc1c(O)cc2c(c1O)-c1cc(ccc1O)C1NC(=O)C3NC(=O)C(CC(N)=O)NC(=O)C(N4CN(C)C(CC(C)C)C4=O)C(O)c4ccc(c(Cl)c4)Oc4cc3cc(c4OC3OC(CO)C(O)C(O)C3OC3CC(C)(N)C(O)C(C)O3)Oc3ccc(cc3Cl)C(OC3CC(C)(N)C(O)C(C)O3)C(NC1=O)C(=O)NC2C(=O)O (stereo not shown) [II1] | 0.25 µg/mL | 0.125 µg/mL | 
CNC(CC(C)C)C(=O)NC1C(=O)NC(CC(N)=O)C(=O)NC2C(=O)NC3C(=O)NC(C(=O)NC(C(=O)O)c4cc(O)c(CN5CCOCC5)c(O)c4-c4cc3ccc4O)C(OC3CC(C)(N)C(O)C(C)O3)c3ccc(c(Cl)c3)Oc3cc2cc(c3OC2OC(CO)C(O)C(O)C2OC2CC(C)(N)C(O)C(C)O2)Oc2ccc(cc2Cl)C1O (stereo not shown) [Compound I2] | 0.5 µg/mL | 0.063 µg/mL | 
CCCCNCc1c(O)cc2c(c1O)-c1cc(ccc1O)C1NC(=O)C3NC(=O)C(CC(N)=O)NC(=O)C(N4CN(C)C(CC(C)C)C4=O)C(O)c4ccc(c(Cl)c4)Oc4cc3cc(c4OC3OC(CO)C(O)C(O)C3OC3CC(C)(NCc4cccc(Br)c4)C(O)C(C)O3)Oc3ccc(cc3Cl)C(OC3CC(C)(N)C(O)C(C)O3)C(NC1=O)C(=O)NC2C(=O)O (stereo not shown) [II5] | 1 µg/mL | 0.25 µg/mL | 
CC(C)CC1C(=O)N(C2C(=O)NC(CC(N)=O)C(=O)NC3C(=O)NC4C(=O)NC(C(=O)NC(C(=O)O)c5cc(O)c(CN6CCOCC6)c(O)c5-c5cc4ccc5O)C(OC4CC(C)(N)C(O)C(C)O4)c4ccc(c(Cl)c4)Oc4cc3cc(c4OC3OC(CO)C(O)C(O)C3OC3CC(C)(NCc4ccc(C(C)C)cc4)C(O)C(C)O3)Oc3ccc(cc3Cl)C2O)CN1C (stereo not shown) [II9] | 1 µg/mL | 0.25 µg/mL | 
CCCCNCc1c(O)cc2c(c1O)-c1cc(ccc1O)C1NC(=O)C3NC(=O)C(CC(N)=O)NC(=O)C(N4CN(C)C(CC(C)C)C4=O)C(O)c4ccc(c(Cl)c4)Oc4cc3cc(c4OC3OC(CO)C(O)C(O)C3OC3CC(C)(NCc4ccccc4Br)C(O)C(C)O3)Oc3ccc(cc3Cl)C(OC3CC(C)(N)C(O)C(C)O3)C(NC1=O)C(=O)NC2C(=O)O (stereo not shown) [II3] | 2 µg/mL | 0.25 µg/mL | 
CCN(CC)Cc1c(O)cc2c(c1O)-c1cc(ccc1O)C1NC(=O)C3NC(=O)C(CC(N)=O)NC(=O)C(N4CN(C)C(CC(C)C)C4=O)C(O)c4ccc(c(Cl)c4)Oc4cc3cc(c4OC3OC(CO)C(O)C(O)C3OC3CC(C)(NCc4ccc(Br)cc4)C(O)C(C)O3)Oc3ccc(cc3Cl)C(OC3CC(C)(N)C(O)C(C)O3)C(NC1=O)C(=O)NC2C(=O)O (stereo not shown) [II7] | 1 µg/mL | 0.25 µg/mL | 
CNC(CC(C)C)C(=O)NC1C(=O)NC(CC(N)=O)C(=O)NC2C(=O)NC3C(=O)NC(C(=O)NC(C(=O)O)c4cc(O)c(CN5CCOCC5)c(O)c4-c4cc3ccc4O)C(OC3CC(C)(N)C(O)C(C)O3)c3ccc(c(Cl)c3)Oc3cc2cc(c3OC2OC(CO)C(O)C(O)C2OC2CC(C)(NCc3ccc(Br)cc3)C(O)C(C)O2)Oc2ccc(cc2Cl)C1O (stereo not shown) [Compound I9] | 0.25 µg/mL | ≤0.031 µg/mL | more four times than vancomycin
CCCCNCc1c(O)cc2c(c1O)-c1cc(ccc1O)C1NC(=O)C3NC(=O)C(CC(N)=O)NC(=O)C(NC(=O)C(CC(C)C)NC)C(O)c4ccc(c(Cl)c4)Oc4cc3cc(c4OC3OC(CO)C(O)C(O)C3OC3CC(C)(NCc4ccccc4Br)C(O)C(C)O3)Oc3ccc(cc3Cl)C(OC3CC(C)(N)C(O)C(C)O3)C(NC1=O)C(=O)NC2C(=O)O (stereo not shown) [Compound I7] | 1 µg/mL | 0.5 µg/mL | 
CNC(CC(C)C)C(=O)NC1C(=O)NC(CC(N)=O)C(=O)NC2C(=O)NC3C(=O)NC(C(=O)NC(C(=O)O)c4cc(O)c(CNCP(=O)(O)O)c(O)c4-c4cc3ccc4O)C(OC3CC(C)(N)C(O)C(C)O3)c3ccc(c(Cl)c3)Oc3cc2cc(c3OC2OC(CO)C(O)C(O)C2OC2CC(C)(N)C(O)C(C)O2)Oc2ccc(cc2Cl)C1O (stereo not shown) [Compound I1] | 0.5 µg/mL | 0.125 µg/mL | 
CCN(CC)Cc1c(O)cc2c(c1O)-c1cc(ccc1O)C1NC(=O)C3NC(=O)C(CC(N)=O)NC(=O)C(N4CN(C)C(CC(C)C)C4=O)C(O)c4ccc(c(Cl)c4)Oc4cc3cc(c4OC3OC(CO)C(O)C(O)C3OC3CC(C)(NCc4ccc(OC)cc4)C(O)C(C)O3)Oc3ccc(cc3Cl)C(OC3CC(C)(N)C(O)C(C)O3)C(NC1=O)C(=O)NC2C(=O)O (stereo not shown) [II8] | 1 µg/mL | 0.25 µg/mL | 
CNC(CC(C)C)C(=O)NC1C(=O)NC(CC(N)=O)C(=O)NC2C(=O)NC3C(=O)NC(C(=O)NC(C(=O)O)c4cc(O)c(CN5CCOCC5)c(O)c4-c4cc3ccc4O)C(OC3CC(C)(N)C(O)C(C)O3)c3ccc(c(Cl)c3)Oc3cc2cc(c3OC2OC(CO)C(O)C(O)C2OC2CC(C)(NCc3cccc(Br)c3)C(O)C(C)O2)Oc2ccc(cc2Cl)C1O (stereo not shown) [Compound I8] | 0.25 µg/mL | 0.063 µg/mL | 
CCCCCCCCCCNC1(C)CC(OC2c3ccc(c(Cl)c3)Oc3cc4cc(c3OC3OC(CO)C(O)C(O)C3OC3CC(C)(NCCCCCCCCCC)C(O)C(C)O3)Oc3ccc(cc3Cl)C(O)C(NC(=O)C(CC(C)C)N(C)CCCCCCCCCC)C(=O)NC(CC(N)=O)C(=O)NC4C(=O)NC3C(=O)NC2C(=O)NC(C(=O)O)c2cc(O)c(CNCCCC)c(O)c2-c2cc3ccc2O)OC(C)C1O (stereo not shown) [Compound I4] | >8 µg/mL | >8 µg/mL | 
CCN(CC)Cc1c(O)cc2c(c1O)-c1cc(ccc1O)C1NC(=O)C3NC(=O)C(CC(N)=O)NC(=O)C(N4CN(C)C(CC(C)C)C4=O)C(O)c4ccc(c(Cl)c4)Oc4cc3cc(c4OC3OC(CO)C(O)C(O)C3OC3CC(C)(NCc4cccc(Br)c4)C(O)C(C)O3)Oc3ccc(cc3Cl)C(OC3CC(C)(N)C(O)C(C)O3)C(NC1=O)C(=O)NC2C(=O)O (stereo not shown) [II4] | 2 µg/mL | 0.25 µg/mL | 
CCN(CC)Cc1c(O)cc2c(c1O)-c1cc(ccc1O)C1NC(=O)C3NC(=O)C(CC(N)=O)NC(=O)C(NC(=O)C(CC(C)C)NC)C(O)c4ccc(c(Cl)c4)Oc4cc3cc(c4OC3OC(CO)C(O)C(O)C3OC3CC(C)(NCc4ccccc4Br)C(O)C(C)O3)Oc3ccc(cc3Cl)C(OC3CC(C)(N)C(O)C(C)O3)C(NC1=O)C(=O)NC2C(=O)O (stereo not shown) [Compound I6] | 1 µg/mL | 0.25 µg/mL | 
